The values below come from patent US20250154138A1, “Small Molecule IL-17A Modulators” (BeiGene, Ltd., priority 2022, published 2025).

The target of test [1] is human IL-17A / human IL-17RA (Homo sapiens (Human), UniProt Q16552). The test can be described thus: Human IL-17A biochemical assay (HTRF, blocking of IL-17A binding to IL-17RA). Particulars: 0.4 nM IL-17A, 0.3 nM IL-17RA, max compound concentration 10 uM. How it is done: Compounds disclosed herein were tested for blocking of human IL-17A (Cat: C774, novoprotein) protein with its receptor human IL-17RA (Cat: C153, novoprotein) in an assay based on Homogeneous Time Resolved Fluorescence. 0.4 nM recombinant human IL-17A protein was pre-incubated with a serial dilution of compounds disclosed herein (maximum concentration is 10 uM, 2.7-fold serially diluted, 10 points) at room temperature for 3 hours in an assay buffer containing 20 mM HEPES, pH 7.5, 50 mM NaCl, 0.1% BSA, 0.2 mM DTT, 0.005% Tween 20. Then 0.3 nM recombinant human IL-17RA was added to plate and further incubated at room temperature for 1 hour. After that Mab Anti-6His Tb cryptate Gold (Cat: 61HI2TLB, Cisbio Bioassays) and MAb Anti Human IgG-XL665 (Cat: 61HFCXLB, Cisbio Bioassays) were added to plate and further incubated at room temperature for 1 hour. The HTRF signals (ex337 nm, em620 nm/665 nm) were read on BMG PHERAstar FSX instrument. The inhibition percentage of human IL-17A interaction with its receptor human IL-17RA in presence of increasing concentrations of compounds was calculated based on the ratio of […]. The IC50 for each compound was derived from fitting the data to the four-parameter logistic equation by Dotmatics.

Test [2] relates to IL-17-induced GROα secretion from HT-29 cells. The test can be described thus: GROα release assay in human colorectal adenocarcinoma epithelial cell (HT-29, ELISA). To be noted: 10 ng/mL IL-17A, highest concentration 10 μM, read-out: Cellular assay HT29 cell/CXCL1 IC50. The format is cell-based. The method, then:
The purpose of the assay is to test the ability of a compound to neutralize IL17A proteins. IL17 can stimulate human epithelial cells to secrete GROα. The ability of one compound of the invention to neutralize IL-17-induced GROα secretion from the human colorectal adenocarcinoma epithelia cell line HT-29 is tested in this assay.
HT-29 cells (human colorectal adenocarcinoma epithelia cell, ATCC) were stimulated with IL-17A (Novoprotein, #C774) in final concentration of 10 ng/mL. The resultant GROα response was measured using an ELISA kit from Invitrogen (#88-52122). HT-29 cells were cultured in complete medium (McCoy's 5A medium+10% FBS) and maintained in a tissue culture flask using standard techniques. On day 1, detached the cell by using TrypLE (Gibco, #12605036) and used the complete medium to neutralize. The cells were centrifuged at 11,00 rmp for 4 minutes. Re-suspended the cell pellet in complete medium and seeded 50,000 HT-29 cells into the 96-well assay plate (Corning, 3599) at 135 μL complete medium per well. The cells were incubated for overnight, at 37° C./5% CO2 to adherent the plate. On day 2, prepared a 4-fold serial dilution of the tested compound in DMSO. The highest concentration of the compound was 10 μM. Transferred 2 μL of the serial diluted compound from the serial dilution plate into the reagent plate which was contained 198 μL complete medium with 100 ng/mL IL-17A per well. The compounds were incubated with the IL-17A for 15 minutes. 15 μL mixtures from reagent plate were transferred into the cell assay plate. Incubated the plate at 37° C./5% CO2 for 48 hours. After the incubation, on day 4, GROα level were measured with GROα ELISA as the manufacturer's instructions. 50 μL supernatant was collected form the assay plate to ELISA plate. ELISA plate was read at 450 nm on a microplate reader and compared to a standard calibration curve.
Data were processed using GraphPad Prism. GROα concentration was calculated from the standard curve. IC50 was determined using the equation log concentration (inhibitor) against response and fitted to four parameters.

pIC50: −log10 of the molar value. Read-outs that look alike come from different tables or passages of the source.

human IL-17A / human IL-17RA, sequence (Q16552 24-155): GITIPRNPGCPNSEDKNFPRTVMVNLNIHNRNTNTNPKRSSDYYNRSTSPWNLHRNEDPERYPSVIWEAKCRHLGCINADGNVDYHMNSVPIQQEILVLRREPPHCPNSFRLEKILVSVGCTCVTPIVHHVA

As to `CNC(=O)C1(N2C(=O)NCC2C)Cc2ccc(NC(=O)[C@@H](NC(=O)c3ccnn3C)C3CCCCC3)cc2C1` (stereo partly drawn) [Example 17, N-((1S)-1-cyclohexyl-2-((2-(5-methyl-2-oxoimidazolidin-1-yl)-2-(methylcarbamoyl)-2,3-dihydro-1H-inden-5-yl)amino)-2-oxoethyl)-1-methyl-1H-pyrazole-5-carboxamide], the pIC50 in test [1] is 5.60; in test [2] (Homo sapiens, HT-29, 48 h), 5.58.
Consider `Cn1nccc1C(=O)N[C@H](C(=O)Nc1ccc2c(c1)CC(N1CC3(CC3)CNC1=O)C2)C1CCCCC1` (stereo partly drawn) [Example 199, N-((1S)-1-cyclohexyl-2-oxo-2-((2-(6-oxo-5,7-diazaspiro[2.5]octan-5-yl)-2,3-dihydro-1H-inden-5-yl)amino)ethyl)-1-methyl-1H-pyrazole-5-carboxamide], for which the pIC50 was 6.24 in test [1] and 5.56 in test [2] (Homo sapiens, HT-29, 48 h).
As to `CNC(=O)C1(N2C[C@@H](C(C)C)NC2=O)Cc2ccc(NC(=O)[C@@H](NC(=O)c3ccnn3CCO)C3CCCCC3)cc2C1` (stereo partly drawn) [Example 126, N-((1S)-1-cyclohexyl-2-((2-((R)-4-isopropyl-2-oxoimidazolidin-1-yl)-2-(methylcarbamoyl)-2,3-dihydro-1H-inden-5-yl)amino)-2-oxoethyl)-1-(2-hydroxyethyl)-1H-pyrazole-5-carboxamide], the pIC50 was 7.14 in test [1] and 5.40 in test [2] (Homo sapiens, HT-29, 48 h).
`CNC(=O)C1(N2C[C@@H](C(C)C)NC2=O)Cc2cc(NC(=O)[C@@H](NC(=O)c3ccnn3C)C3CCCCC3)cnc2C1` (stereo partly drawn) [Example 117, 3-((S)-2-cyclohexyl-2-(1-methyl-1H-pyrazole-5-carboxamido)acetamido)-6-((R)-4-isopropyl-2-oxoimidazolidin-1-yl)-N-methyl-6,7-dihydro-5H-cyclopenta[b]pyridine-6-carboxamide]: the pIC50 in test [1] is 6.03; in test [2] (Homo sapiens, HT-29, 48 h) it was 5.97.
The corresponding values for `Cc1nonc1C(=O)N[C@H](C(=O)Nc1ccc2c(c1)CC(C#N)(N1C[C@@H](C(C)C)NC1=O)C2)C(C1CC1)C1CC1` (stereo partly drawn) [Example 266, N-((2S)-1-((2-cyano-2-((R)-4-isopropyl-2-oxoimidazolidin-1-yl)-2,3-dihydro-1H-inden-5-yl)amino)-3,3-dicyclopropyl-1-oxopropan-2-yl)-4-methyl-1,2,5-oxadiazole-3-carboxamide] are 6.04 and 6.18.
Take `CNC(=O)C1(N2CC(C(C)C(F)(F)F)NC2=O)Cc2ccc(NC(=O)[C@@H](NC(=O)c3ccnn3C)C3CCCCC3)cc2C1` (stereo partly drawn) [Example 81, N-((1S)-1-cyclohexyl-2-((2-(methylcarbamoyl)-2-(2-oxo-4-(1,1,1-trifluoropropan-2-yl)imidazolidin-1-yl)-2,3-dihydro-1H-inden-5-yl)amino)-2-oxoethyl)-1-methyl-1H-pyrazole-5-carboxamide]: the pIC50 in test [1] was 7.12; in test [2] (Homo sapiens, HT-29, 48 h) it was 6.15.
In the case of `CC(C)n1nccc1C(=O)N[C@H](C(=O)Nc1ccc2c(c1)CC(N1C[C@@H](C(F)(F)F)NC1=O)C2)C(C1CC1)C1CC1` (stereo partly drawn) [Example 177, N-((2S)-1,1-dicyclopropyl-3-oxo-3-((2-((S)-2-oxo-4-(trifluoromethyl)imidazolidin-1-yl)-2,3-dihydro-1H-inden-5-yl)amino)propan-2-yl)-1-isopropyl-1H-pyrazole-5-carboxamide], the pIC50 in test [1] was 7.27; in test [2] (Homo sapiens, HT-29, 48 h), 7.23.
Take `Cc1nonc1C(=O)N[C@H](C(=O)Nc1ccc2c(c1)CC(C(=O)NC1(c3ccccc3F)CC1)(N1CC3(CC3)CNC1=O)C2)C1CCC(F)(F)CC1` (stereo partly drawn) [Example 232, N-((1S)-1-(4,4-difluorocyclohexyl)-2-((2-((1-(2-fluorophenyl)cyclopropyl)carbamoyl)-2-(6-oxo-5,7-diazaspiro[2.5]octan-5-yl)-2,3-dihydro-1H-inden-5-yl)amino)-2-oxoethyl)-4-methyl-1,2,5-oxadiazole-3-carboxamide]: the pIC50 in test [1] was 6.93; in test [2] (Homo sapiens, HT-29, 48 h) it was 6.80.
Take `Cn1nccc1C(=O)N[C@H](C(=O)Nc1ccc2c(c1)CC(C(O)C(F)(F)F)(N1CC3(CC3)CNC1=O)C2)C1CCCCC1` (stereo partly drawn) [Example 194, N-((1S)-1-cyclohexyl-2-oxo-2-((2-(6-oxo-5,7-diazaspiro[2.5]octan-5-yl)-2-(2,2,2-trifluoro-1-hydroxyethyl)-2,3-dihydro-1H-inden-5-yl)amino)ethyl)-1-methyl-1H-pyrazole-5-carboxamide]: the pIC50 was 7.47 in test [1] and 7.68 in test [2] (Homo sapiens, HT-29, 48 h).
On the same counts, the results for `Cc1nonc1C(=O)N[C@H](C(=O)Nc1ccc2c(c1)CC(N1C[C@@H](C(C)C)NC1=O)C2)C(C1CC1)C1CC1` (stereo partly drawn) [Example 231, N-((2S)-1,1-dicyclopropyl-3-((2-((R)-4-isopropyl-2-oxoimidazolidin-1-yl)-2,3-dihydro-1H-inden-5-yl)amino)-3-oxopropan-2-yl)-4-methyl-1,2,5-oxadiazole-3-carboxamide] are 5.97 and 5.71.
For `CNC(=O)C1(N2C[C@@H](C(C)C)NC2=O)Cc2ccc(NC(=O)[C@@H](NC(=O)Cc3ccccc3)C3CCCCC3)cc2C1` (stereo partly drawn) [Example 53, 5-((S)-2-cyclohexyl-2-(2-phenylacetamido)acetamido)-2-((R)-4-isopropyl-2-oxoimidazolidin-1-yl)-N-methyl-2,3-dihydro-1H-indene-2-carboxamide], the pIC50 is 6.65 in test [1] and 6.13 in test [2] (Homo sapiens, HT-29, 48 h).
Turning to `COc1ccccc1NCC1(N2CC3(CC3)CNC2=O)Cc2ccc(NC(=O)[C@@H](NC(=O)c3ccnn3C)C3CCCCC3)cc2C1` (stereo partly drawn) [Example 173, N-((1S)-1-cyclohexyl-2-((2-(((2-methoxyphenyl)amino)methyl)-2-(6-oxo-5,7-diazaspiro[2.5]octan-5-yl)-2,3-dihydro-1H-inden-5-yl)amino)-2-oxoethyl)-1-methyl-1H-pyrazole-5-carboxamide], in test [2] (Homo sapiens, HT-29, 48 h), the pIC50 is 6.82.
`Cc1nonc1C(=O)N[C@H](C(=O)Nc1ccc2c(c1)CC(N1C[C@@H](C(C)C)NC1=O)(C(C)(O)C(F)(F)F)C2)C(C1CC1)C1CC1` (stereo partly drawn) [Example 250, N-((2S)-1,1-dicyclopropyl-3-((2-((R)-4-isopropyl-2-oxoimidazolidin-1-yl)-2-(1,1,1-trifluoro-2-hydroxypropan-2-yl)-2,3-dihydro-1H-inden-5-yl)amino)-3-oxopropan-2-yl)-4-methyl-1,2,5-oxadiazole-3-carboxamide]: the pIC50 was 6.57 in test [2] (48 hours) and 6.72 in test [2] (Homo sapiens, HT-29, 48 h).
For `CNC(=O)C1(N2C[C@@H](C(C)C)NC2=O)Cc2ccc(NC(=O)[C@@H](NC(=O)CCc3ccccc3)C3CCCCC3)cc2C1` (stereo partly drawn) [Example 52, 5-((S)-2-cyclohexyl-2-(3-phenylpropanamido)acetamido)-2-((R)-4-isopropyl-2-oxoimidazolidin-1-yl)-N-methyl-2,3-dihydro-1H-indene-2-carboxamide], the pIC50 in test [1] was 5.88.
As to `CNC(=O)C1(N2CC(C(C)(C)O)NC2=O)Cc2ccc(NC(=O)[C@@H](NC(=O)c3ccnn3C)C3CCCCC3)cc2C1` (stereo partly drawn) [Example 42, N-((1S)-1-cyclohexyl-2-((2-(4-(2-hydroxypropan-2-yl)-2-oxoimidazolidin-1-yl)-2-(methylcarbamoyl)-2,3-dihydro-1H-inden-5-yl)amino)-2-oxoethyl)-1-methyl-1H-pyrazole-5-carboxamide], in test [1], the pIC50 was 5.50.
`CNC(=O)C1(N2CC(C3CCc4ccccc43)NC2=O)Cc2ccc(NC(=O)[C@@H](NC(=O)c3ccnn3C)C3CCCCC3)cc2C1` (stereo partly drawn) [Example 92, N-((1S)-1-cyclohexyl-2-((2-(4-(2,3-dihydro-1H-inden-1-yl)-2-oxoimidazolidin-1-yl)-2-(methylcarbamoyl)-2,3-dihydro-1H-inden-5-yl)amino)-2-oxoethyl)-1-methyl-1H-pyrazole-5-carboxamide]: the pIC50 in test [1] is 5.52.
